We go through 10 compounds from PubChem BioAssay (NCI).

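96-well plates; 48 h exposure; 5 concentrations. Endpoints by linear interpolation between flanking doses. Not reached: highest tested concentration assigned. Abbreviation: GI50, concentration required for 50% inhibition of growth. The concentration for full growth arrest is given as TGI.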 Bounds are passed on as bounds.

Some test systems named below: MOLT-4 leukemia; HOP-92 NSCLC; NCI-H23 lung; SF-539 CNS; SW-620 colon; UACC-62 melanoma; SF-295 CNS; 786-0 renal; HCT-116 colon; SK-MEL-28 melanoma.
Common to all, as to test: inhibition of tumour cell growth, NCI panel, 48 h

For `Fc1ccc(C2SCc3nc4ccccc4n32)c(F)c1` (stereo not given), the TGI in the test on MOLT-4 leukemia was greater than 100 µM; in the test on HOP-92 NSCLC, 92.4 µM; in the test with NCI-H23 lung, greater than 100 µM; in the test on SF-539 CNS, greater than 100 µM; in the test with SW-620 colon it was greater than 100 µM; in the test on UACC-62 melanoma, greater than 100 µM. Also, the TGI in the test on SF-295 CNS, in the test with 786-0 renal and with HCT-116 colon was greater than 100 µM in each case.
In the case of `FC(F)(F)c1ccc(-c2cnc(-c3ncon3)nc2NC2CCCCCC2)cc1`, the GI50 is 19.8 µM in the test on MOLT-4 leukemia; 37 µM in the test on NCI-H23 lung; greater than 100 µM in the test with SF-539 CNS; 43.3 µM in the test on SW-620 colon; 99.2 µM in the test with SK-MEL-28 melanoma; 48.6 µM with UACC-62 melanoma. Besides, the GI50 in the test on SF-295 CNS was 34.5 µM; with 786-0 renal, 63.6 µM; in the test on HCT-116 colon, 33.9 µM. The TGI in the test with MOLT-4 leukemia is 55 µM; in the test on NCI-H23 lung, greater than 100 µM; with SF-539 CNS it was greater than 100 µM; in the test with SW-620 colon it was greater than 100 µM; in the test on SK-MEL-28 melanoma, greater than 100 µM; in the test with UACC-62 melanoma it was greater than 100 µM. For the same compound, the TGI in the test with SF-295 CNS, in the test on 786-0 renal and with HCT-116 colon was greater than 100 µM each time.
Consider `N#Cc1c(N2CCOCC2)nc(=S)[nH]c1-c1ccco1`, for which the GI50 is 4.64 µM in the test with MOLT-4 leukemia; 1.79 µM in the test with HOP-92 NSCLC; 12.1 µM in the test on NCI-H23 lung; 6.34 µM in the test with SF-539 CNS; 23.5 µM in the test with SW-620 colon; 8.45 µM in the test with SK-MEL-28 melanoma. Moreover, the GI50 with UACC-62 melanoma was 2.91 µM; with 786-0 renal it was 6.2 µM; with HCT-116 colon it was 15.6 µM. In addition, the TGI with MOLT-4 leukemia is 51.1 µM; with HOP-92 NSCLC it was greater than 100 µM; in the test with NCI-H23 lung, greater than 100 µM; in the test with SF-539 CNS, 69.9 µM; with SW-620 colon, greater than 100 µM; in the test on SK-MEL-28 melanoma, greater than 100 µM. The TGI in the test on UACC-62 melanoma is 32.7 µM; with 786-0 renal it was 80.8 µM; in the test with HCT-116 colon, greater than 100 µM.
In the case of `COc1cc2c3c(n(C)c(=O)c2cc1OC)-c1cc2c(cc1/C3=C\CCCCN1C(=O)c3ccccc3C1=O)OCO2`, the GI50 is 2.07 µM in the test on MOLT-4 leukemia; 1.34 µM in the test on NCI-H23 lung; 7 µM in the test with SW-620 colon; greater than 100 µM in the test on SK-MEL-28 melanoma; 6.01 µM with UACC-62 melanoma; 11 µM in the test with SF-295 CNS. Further, the GI50 was 16 µM with 786-0 renal and 22.8 µM in the test on HCT-116 colon. The TGI is 13.4 µM in the test on MOLT-4 leukemia; 7.49 µM with HOP-92 NSCLC; 19.2 µM with NCI-H23 lung; greater than 100 µM in the test with SW-620 colon; greater than 100 µM in the test on SK-MEL-28 melanoma; 37.6 µM with UACC-62 melanoma. Moreover, the TGI in the test on SF-295 CNS was 68.1 µM; in the test with 786-0 renal, greater than 100 µM; in the test on HCT-116 colon, greater than 100 µM.
Regarding `CCCCCCCCCCCCCCCCCC1=NCCN1CCOC1=C(Cl)C(=O)c2ccccc2C1=O`, the GI50 with MOLT-4 leukemia is 0.747 µM; in the test with HOP-92 NSCLC, 1.78 µM; in the test on NCI-H23 lung, 2.5 µM; in the test on SF-539 CNS, 1.83 µM; in the test with SW-620 colon, 1.73 µM; in the test on SK-MEL-28 melanoma, 3.31 µM. Further, the results for the GI50 in the test with UACC-62 melanoma, in the test with 786-0 renal and in the test with HCT-116 colon were 2.12 µM, 2.19 µM and 1.82 µM, respectively. Also, the TGI in the test on MOLT-4 leukemia amounted to 3.8 µM; in the test on HOP-92 NSCLC, 3.4 µM; in the test on NCI-H23 lung, 7.73 µM; with SF-539 CNS it was 3.78 µM; in the test on SW-620 colon it was 3.41 µM; with SK-MEL-28 melanoma, 9.05 µM. Moreover, the TGI is 4.99 µM in the test on UACC-62 melanoma, 4.09 µM in the test with 786-0 renal and 3.43 µM with HCT-116 colon.
As for `CO[C@H]1CC(O[C@@H]2/C(C)=C/C[C@@H]3C[C@@H](C[C@]4(C=C[C@H](C)[C@@H](C5CCCCC5)O4)O3)OC(=O)[C@@H]3C=C(C)[C@@H](O)[C@H]4OC/C(=C\C=C\[C@@H]2C)[C@]43O)O[C@@H](C)C1O[C@H]1C[C@H](OC)[C@@H](O)[C@H](C)O1` (stereo not given in full), the GI50 in the test on MOLT-4 leukemia is 2.05 µM; with HOP-92 NSCLC, 0.301 µM; in the test with SK-MEL-28 melanoma, 1.58 µM; in the test on SF-295 CNS, 1.33 µM; in the test with 786-0 renal, 1.54 µM; with HCT-116 colon it was 1.4 µM. Besides, the TGI came to 4.83 µM in the test with MOLT-4 leukemia; 1.89 µM in the test with HOP-92 NSCLC; 3.03 µM in the test with SK-MEL-28 melanoma; 2.83 µM with SF-295 CNS; 3.14 µM in the test with 786-0 renal; 2.72 µM with HCT-116 colon.
On to `C#C[C@]1(O)CCCC2=CC(=O)CC[C@@]21C`, for which the TGI in the test with MOLT-4 leukemia, in the test with HOP-92 NSCLC, in the test on NCI-H23 lung, with SF-539 CNS, with SW-620 colon and in the test with SK-MEL-28 melanoma was greater than 100 µM throughout. For the same compound, the TGI with SF-295 CNS and with 786-0 renal was greater than 100 µM each time.
As for `O=C1CC(c2c[nH]c3ccccc23)C(=O)N1` (stereo not given), the TGI in the test with MOLT-4 leukemia, with NCI-H23 lung, in the test with SF-539 CNS, in the test with SW-620 colon, in the test on SK-MEL-28 melanoma and in the test on UACC-62 melanoma was greater than 100 µM in each case. In addition, the TGI with SF-295 CNS, with 786-0 renal and with HCT-116 colon was greater than 100 µM in each case.
As for `O=C1C(=C([O-])c2ccccc2)C(=O)c2ccccc21.O=C1C(=C([O-])c2ccccc2)C(=O)c2ccccc21.[Fe+2]`, the GI50 was greater than 100 µM in the test on MOLT-4 leukemia; 16.1 µM in the test with HOP-92 NSCLC; 58.8 µM in the test on NCI-H23 lung; greater than 100 µM in the test on SF-539 CNS; greater than 100 µM with SW-620 colon; greater than 100 µM in the test on SK-MEL-28 melanoma. Also, the figures for the GI50 in the test with SF-295 CNS, with 786-0 renal and with HCT-116 colon were 44 µM, greater than 100 µM and greater than 100 µM, respectively. The TGI with MOLT-4 leukemia is greater than 100 µM; in the test on HOP-92 NSCLC, 38.6 µM; in the test with NCI-H23 lung it was greater than 100 µM; in the test with SF-539 CNS, greater than 100 µM; in the test with SW-620 colon, greater than 100 µM; with SK-MEL-28 melanoma, greater than 100 µM. Also, the TGI in the test with SF-295 CNS, in the test on 786-0 renal and in the test with HCT-116 colon was greater than 100 µM in each case.
Take `CN=c1ccc2nc3ccc(N)cc3sc-2c1`: the GI50 was 1.77 µM in the test on MOLT-4 leukemia; 1.83 µM in the test with NCI-H23 lung; 1.75 µM with SF-539 CNS; 2.89 µM in the test with SW-620 colon; 7.36 µM with SK-MEL-28 melanoma; 2.61 µM with UACC-62 melanoma. Further, the GI50 in the test on SF-295 CNS is 0.962 µM; in the test on 786-0 renal, 10.5 µM; in the test with HCT-116 colon it was 1.29 µM. In addition, the TGI stood at 6.86 µM with MOLT-4 leukemia; 12.9 µM with NCI-H23 lung; 5.86 µM in the test with SF-539 CNS; 20.2 µM in the test on SW-620 colon; 24.1 µM in the test on SK-MEL-28 melanoma; 14 µM with UACC-62 melanoma. In addition, the TGI in the test with SF-295 CNS stood at 3.79 µM; in the test with 786-0 renal, 25.9 µM; in the test with HCT-116 colon, 10.3 µM.
